Results: ChEMBL document CHEMBL1136019, “Structure-based optimisation of 2-aminobenzylstatine derivatives: potent and selective inhibitors of the chymotrypsin-like activity of the human 20S proteasome” (Bioorg Med Chem Lett, 2002)

target: 20S proteasome; assay: Tested in vitro for inhibition of chymotrypsin like activity of purified human 20S proteasome; type: subcellular

First: COc1ccc(CNC(=O)[C@@H](NC(=O)[C@H](NCc2ccccc2OC)[C@H](O)[C@H](Cc2ccccc2)NC(=O)[C@@H](NC(=O)OCc2ccccc2)C(C)(C)C)C(C)C)c(O)c1
Second: COc1ccc(CNC(=O)[C@@H](NC(=O)[C@H](NCc2ccc(OC)cc2OC)[C@H](O)[C@H](Cc2ccccc2)NC(=O)[C@@H](NC(=O)OCc2ccccc2)C(C)(C)C)C(C)C)c(O)c1
The IC50 of the first is higher: over 20000 nM for the first, 1600 nM for the second. The second is the more potent here.

`COc1ccc(CNC(=O)[C@@H](NC(=O)[C@H](NCc2ccc(-c3ccccc3)cc2)[C@H](O)[C@H](Cc2ccccc2)NC(=O)[C@@H](NC(=O)OCc2ccccc2)C(C)(C)C)C(C)C)c(O)c1` and `COc1ccc(CNC(=O)[C@@H](NC(=O)[C@H](NCc2ccc(Oc3ccccc3)cc2)[C@H](O)[C@H](Cc2ccccc2)NC(=O)[C@@H](NC(=O)OCc2ccccc2)C(C)(C)C)C(C)C)c(O)c1` cannot be ordered by IC50: over 20000 nM for the first, over 20000 nM for the second.

Compared with `COc1cc(CN[C@@H](C(=O)N[C@H](C(=O)NCc2ccc(OC)cc2O)C(C)C)[C@H](O)[C@H](Cc2ccccc2)NC(=O)[C@@H](NC(=O)OCc2ccccc2)C(C)(C)C)cc(OC)c1`, `COc1cccc(CN[C@@H](C(=O)N[C@H](C(=O)NCc2ccc(OC)cc2O)C(C)C)[C@H](O)[C@H](Cc2ccccc2)NC(=O)[C@@H](NC(=O)OCc2ccccc2)C(C)(C)C)c1` is 7.9-fold higher in IC50: 190 nM for the first, 1500 nM for the second. The first is the more potent here.

Going from `COc1ccc(CN[C@@H](C(=O)N[C@H](C(=O)NCc2ccc(OC)cc2O)C(C)C)[C@H](O)[C@H](Cc2ccccc2)NC(=O)[C@@H](NC(=O)OCc2ccccc2)C(C)(C)C)cc1` to `COc1ccc(CNC(=O)[C@@H](NC(=O)[C@H](NCc2ccc(C(C)C)cc2)[C@H](O)[C@H](Cc2ccccc2)NC(=O)[C@@H](NC(=O)OCc2ccccc2)C(C)(C)C)C(C)C)c(O)c1`, the IC50 rises from 900 nM to 1600 nM (1.8-fold).

First: COc1ccc(CNC(=O)[C@@H](NC(=O)[C@H](NCc2cc(OC)c(OC)c(OC)c2)[C@H](O)[C@H](Cc2ccccc2)NC(=O)[C@@H](NC(=O)OCc2ccccc2)C(C)(C)C)C(C)C)c(O)c1
Second: COc1ccc(CNC(=O)[C@@H](NC(=O)[C@H](NCc2cc(OC)c(OC)cc2OC)[C@H](O)[C@H](Cc2ccccc2)NC(=O)[C@@H](NC(=O)OCc2ccccc2)C(C)(C)C)C(C)C)c(O)c1
The IC50 of the first is 4-fold lower: 50 nM for the first, 200 nM for the second.

Compared with `COc1ccc(CNC(=O)[C@@H](NC(=O)[C@H](NCc2cc(OC)c(OC)c(OC)c2)[C@H](O)[C@H](Cc2ccccc2)NC(=O)[C@@H](NC(=O)Cc2cccc3ccccc23)C(C)(C)C)C(C)C)c(O)c1`, `COc1ccc(CNC(=O)[C@@H](NC(=O)[C@H](NCc2cc(OC)c(OC)cc2OC)[C@H](O)[C@H](Cc2ccccc2)NC(=O)[C@@H](NC(=O)Cc2cccc3ccccc23)C(C)(C)C)C(C)C)c(O)c1` is 4.1-fold higher in IC50: 7 nM for the first, 29 nM for the second.

Going from `COc1ccc(CNC(=O)[C@@H](NC(=O)[C@H](NCc2ccccc2)[C@H](O)[C@H](Cc2ccccc2)NC(=O)[C@@H](NC(=O)OCc2ccccc2)C(C)(C)C)C(C)C)c(O)c1` to `COc1ccc(CNC(=O)[C@@H](NC(=O)[C@H](NCc2ccc(N(C)C)cc2)[C@H](O)[C@H](Cc2ccccc2)NC(=O)[C@@H](NC(=O)OCc2ccccc2)C(C)(C)C)C(C)C)c(O)c1`, the IC50 falls from over 20000 nM to 600 nM.

First: COc1ccc(CNC(=O)[C@@H](NC(=O)[C@H](NCc2ccc(N(C)C)cc2)[C@H](O)[C@H](Cc2ccccc2)NC(=O)[C@@H](NC(=O)Cc2cccc3ccccc23)C(C)(C)C)C(C)C)c(O)c1
Second: COc1ccc(CN[C@@H](C(=O)N[C@H](C(=O)NCc2ccc(OC)cc2O)C(C)C)[C@H](O)[C@H](Cc2ccccc2)NC(=O)[C@@H](NC(=O)Cc2cccc3ccccc23)C(C)(C)C)cc1
The IC50 of the first is 1.6-fold higher: 160 nM for the first, 100 nM for the second.

Compared with `COc1ccc(CNC(=O)[C@@H](NC(=O)[C@H](NCc2ccc(OC)c(OC)c2OC)[C@H](O)[C@H](Cc2ccccc2)NC(=O)[C@@H](NC(=O)Cc2cccc3ccccc23)C(C)(C)C)C(C)C)c(O)c1`, `COc1ccc(CNC(=O)[C@@H](NC(=O)[C@H](NCc2ccc(OC)c(OC)c2OC)[C@H](O)[C@H](Cc2ccccc2)NC(=O)[C@@H](NC(=O)OCc2ccccc2)C(C)(C)C)C(C)C)c(O)c1` is 5.6-fold higher in IC50: 18 nM for the first, 100 nM for the second. The first is the more potent here.

`COc1ccc(CNC(=O)[C@@H](NC(=O)[C@H](NCc2ccc(OC)c(OC)c2)[C@H](O)[C@H](Cc2ccccc2)NC(=O)[C@@H](NC(=O)OCc2ccccc2)C(C)(C)C)C(C)C)c(O)c1` gave an IC50 of 150 nM.
